Earlier results in patent US20260199282A1, “METHODS AND COMPOSITIONS FOR IMPROVING DRIVING PERFORMANCE” (priority 2022, published 2026).

System: patients with narcolepsy or idiopathic hypersomnia
Conditions: modafinil 400 mg/day; ~1.5 hours post-dose; cited from earlier work

In the case of `NC(=O)C[S+]([O-])C(c1ccccc1)c1ccccc1` (stereo not shown) [modafinil], the “mean SDLP” value is listed as 23.6±0.6 cm.
